{"source": "paper PMC5674027", "about": "(Scientific Reports, 2017)", "key": {"[1]": {"molecular_target": "recombinant human claudin-4 protein (Homo sapiens, UniProt O14493)", "sequence (O14493 whole entry)": "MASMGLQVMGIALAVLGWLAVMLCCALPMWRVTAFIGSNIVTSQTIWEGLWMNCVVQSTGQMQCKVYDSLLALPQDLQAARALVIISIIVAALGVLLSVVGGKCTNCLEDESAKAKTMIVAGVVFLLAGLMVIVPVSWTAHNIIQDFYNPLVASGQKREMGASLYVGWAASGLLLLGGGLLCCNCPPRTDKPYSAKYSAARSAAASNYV", "assay": "biochemical", "assay_type": "binding"}, "breast cancer cells": {"system": "breast cancer cells", "conditions": "cited from earlier work"}, "Caco-2 cell monolayer": {"system": "Caco-2 cell monolayer", "assay_type": "cell-based, human", "procedure": "Caco-2 cells were allowed to differentiate for 10 to 14 days on Transwell filters (diameter, 6.5 mm; pore size, 0.4 µm; Corning, Corning, MA, USA) before their use in TER and paracellular flux assays. Caco-2 cell monolayers had TER values of 600–800 Ω•cm^2. TER values were measured by using a Millicell-ERS epithelial volt–ohm meter (Millipore Corporation, Billerica, MA, USA). For the paracellular tracer flux assay, 100 µM dialysed FD-4 was added to the medium in the upper chamber. After 1 h of incubation, the medium was collected from the bottom chamber, and the amount of FD-4 was measured with a TriStar LB 941 microplate reader (Berthold Technologies)."}, "claudin-4 [2]": {"system": "claudin-4", "assay_type": "cell-based, human", "conditions": "n = 3"}, "CLDN3": {"system": "CLDN3", "assay_type": "cell-based, human", "conditions": "n = 3"}, "ZO-1": {"system": "ZO-1", "assay_type": "cell-based, human", "conditions": "100 µM, 24 h"}, "occludin": {"system": "occludin", "assay_type": "cell-based, human", "conditions": "100 µM, 24 h"}, "claudin-1 [3]": {"system": "claudin-1", "assay_type": "cell-based, human", "conditions": "100 µM, 24 h"}, "[4]": {"system": "claudin-3 (HT1080/CLDN3 cells)", "assay_type": "cell-based"}, "claudin-1 [5]": {"system": "claudin-1", "assay_type": "cell-based, human", "conditions": "n = 3"}, "[6]": {"molecular_target": "interaction between claudin-4 and C-CPE (Homo sapiens, UniProt O14493)", "sequence (O14493 whole entry, looked up)": "as the sequence (O14493 whole entry) above", "assay": "biochemical", "assay_type": "binding"}, "Caco-2 cell monolayers": {"system": "Caco-2 cell monolayers", "assay_type": "cell-based, human", "conditions": "100 µM thiostrepton, apical sulfo-NHS-SS-biotin (606.7 Da) 10 min; Caco-2 monolayer", "procedure": "Figure 5 Thiostrepton effect on paracellular tracer permeability. Caco-2 cell monolayers were treated with 100 µM thiostrepton or left untreated (control) and then apically incubated with sulfo-NHS-SS-biotin (606.7 Da; red) and counterstained with anti-ZO-1 antibody (green; TJ stain) and DAPI (blue; nuclear stain). […] Bar = 10 µm.\nLocalisation of claudins-1 and -4, occludin and ZO-1 on Caco-2 cells was assessed by immunofluorescence microscopy. Caco-2 cells were seeded on Transwell filters (diameter, 12 mm; pore size, 0.4 µm; Corning). After treatment with thiostrepton (100 µM) or no treatment for 24 h, the Caco-2 cells were fixed with methanol–acetone (1:1 v/v) for 5 min and then permeabilised with 0.2% Triton X-100 in PBS for 10 min. After non-specific binding had been blocked by incubation with 1% BSA in TBS buffer (20 mM Tris-HCl, pH 7.4, 40 mM NaCl) containing 0.05% Tween-20 (T-TBS) for 1 h, the cells were incubated with anti-claudin-1, -claudin-4, -occludin and -ZO-1 antibodies in 1% BSA in T-TBS for 1 h. After incubation of the cells with fluorescent secondary antibodies for 1 h, the immunofluorescence images were observed under an immunofluorescence microscope (Keyence, Tokyo, Japan). For visualisation of biotin passing through the TJ, Caco-2 cells treated with 100 µM thiostrepton or left untreated were apically labelled with sulfo-NHS-SS-biotin (606.7 Da) for 10 min. […]"}, "CLDN4": {"system": "CLDN4", "assay_type": "cell-based, human", "conditions": "n = 3"}, "rat jejunum [7]": {"system": "rat jejunum", "assay_type": "in vivo", "conditions": "n = 4"}, "CLDN1": {"system": "CLDN1", "assay_type": "cell-based, human", "conditions": "n = 3"}, "claudin-3": {"system": "claudin-3", "assay_type": "cell-based, human", "conditions": "n = 3"}, "Caco-2 cells": {"system": "Caco-2 cells", "assay_type": "cell-based, human", "conditions": "1–100 µM, 24 h; n = 3", "procedure": "For analysis of thiostrepton-induced cytotoxicity on Caco-2 cells, a lactate dehydrogenase (LDH) release assay was performed according to the manufacturer’s instructions. After being treated with thiostrepton for 24 h, the level of LDH released into the culture medium was analysed. Treatment with 0.2% Tween-20 was used as a 100% lysis control. Absorbance was measured at a wavelength of 570 nm by using a TriStar LB 941 microplate reader (Berthold Technologies)."}, "C-CPE": {"system": "C-CPE", "assay_type": "binding, Clostridium perfringens"}, "melanoma cells": {"system": "melanoma cells", "conditions": "cited from earlier work"}, "[8]": {"system": "various human cancer cell lines", "conditions": "cited from earlier work"}, "claudin-4 [9]": {"system": "claudin-4", "assay_type": "cell-based, human", "conditions": "100 µM, 24 h"}, "[10]": {"system": "claudin-4 (HT1080/CLDN4 cells)", "assay_type": "cell-based"}, "rat jejunum [11]": {"system": "rat jejunum", "conditions": "in vivo"}}, "data": [{"smiles": "C=C(NC(=O)C(=C)NC(=O)c1csc(C2=N[C@@H]3c4csc(n4)[C@H]4NC(=O)c5csc(n5)[C@H]([C@](C)(O)[C@@H](C)O)NC(=O)[C@H]5CSC(=N5)/C(=C/C)NC(=O)[C@H]([C@@H](C)O)NC(=O)c5csc(n5)[C@]3(CC2)NC(=O)[C@H](C)NC(=O)C(=C)NC(=O)[C@H](C)NC(=O)[C@H]([C@@H](C)CC)N[C@@H]2C=Cc3c([C@H](C)O)cc(nc3[C@H]2O)C(=O)O[C@@H]4C)n1)C(N)=O", "note": "[Thiostrepton]", "values": [{"measurement": "Kd", "setting": "[1]", "result": 6.62, "unit": "µM"}, {"measurement": "effect on breast cancer cells", "setting": "breast cancer cells", "result": "leads to cell-cycle arrest and cell death by down-regulating FOXM1 gene expression"}, {"measurement": "TER (%)", "setting": "Caco-2 cell monolayer; 10 µM, 24 h, percentage of the TER value at 0 h", "result": 55.2, "unit": "%"}, {"measurement": "attenuation of barrier function of Caco-2 cells, comparison among hits", "setting": "Caco-2 cell monolayer; among the hit compounds, Supplementary Figure 4, 10 µM, 24 h", "result": "greatest attenuation of the barrier function of Caco-2 cells"}, {"measurement": "paracellular flux of FD-4", "setting": "Caco-2 cell monolayer; thiostrepton 1–100 µM, 24 h, Caco-2 apical to basal, 100 µM FD-4 1 h, fluorescence plate reader, n = 3", "result": "dose-dependent increase in the paracellular flux of FD-4"}, {"measurement": "effect on TER value of Caco-2 cells", "setting": "Caco-2 cell monolayer; thiostrepton 1–100 µM, 12, 18, 24 h, then 24 h after medium change, n = 3", "result": "reversibly decreased the TER value of Caco-2 cells in a time- and dose-dependent manner"}, {"measurement": "claudin-4 protein, 1% Triton-X-insoluble fraction", "setting": "claudin-4 [2]", "result": "increased"}, {"measurement": "claudin-4 protein, 1% Triton-X-soluble fraction", "setting": "claudin-4 [2]", "result": "increased"}, {"measurement": "claudin-3 mRNA level", "setting": "CLDN3", "result": "significantly decreased"}, {"measurement": "cellular localisation of ZO-1", "setting": "ZO-1", "result": "did not alter the cellular localisation"}, {"measurement": "cellular localisation of occludin", "setting": "occludin", "result": "did not alter the cellular localisation"}, {"measurement": "cellular localisation of claudin-1", "setting": "claudin-1 [3]", "result": "did not alter the cellular localisation"}, {"measurement": "inhibition of C-CPE interaction with claudin-3", "setting": "[4]", "result": "inhibited the interaction between C-CPE and claudin-3, but this effect was substantially weaker than that for claudin-4"}, {"measurement": "claudin-1 protein, 1% Triton-X-insoluble fraction", "setting": "claudin-1 [5]", "result": "unchanged"}, {"measurement": "claudin-1 protein, 1% Triton-X-soluble fraction", "setting": "claudin-1 [5]", "result": "significantly decreased"}, {"measurement": "IC50", "setting": "[6]", "result": 1.02, "unit": "µM"}, {"measurement": "TR-FRET (% of control), inhibition of TR-FRET signal by interaction between claudin-4 and C-CPE", "setting": "[6]", "result": "66.24 % of control"}, {"measurement": "biotin permeation", "setting": "Caco-2 cell monolayers", "result": "biotin signal was detected within the paracellular space"}, {"measurement": "claudin-4 mRNA level", "setting": "CLDN4", "result": "increased"}, {"measurement": "maximum plasma FD-4 concentration", "setting": "rat jejunum [7]", "result": 0.6, "unit": "µg/mL"}, {"measurement": "rat jejunal absorption of FD-4", "setting": "rat jejunum [7]", "result": "enhanced rat jejunal absorption of FD-4 in a dose-dependent manner"}, {"measurement": "claudin-1 mRNA level", "setting": "CLDN1", "result": "significantly decreased"}, {"measurement": "claudin-3 protein, 1% Triton-X-insoluble fraction", "setting": "claudin-3", "result": "unchanged"}, {"measurement": "claudin-3 protein, 1% Triton-X-soluble fraction", "setting": "claudin-3", "result": "significantly decreased"}, {"measurement": "cytotoxicity to Caco-2 cells (LDH release)", "setting": "Caco-2 cells", "result": "not cytotoxic to Caco-2 cells in the concentration range of 1–100 µM"}, {"measurement": "binding to C-CPE", "setting": "C-CPE", "result": "did not bind to C-CPE"}, {"measurement": "effect on melanoma cells", "setting": "melanoma cells", "result": "suppresses cell growth and induces apoptosis"}, {"measurement": "anti-tumour activity", "setting": "[8]", "result": "shows anti-tumour activity in various human cancer cell lines"}, {"measurement": "cellular localisation of claudin-4", "setting": "claudin-4 [9]", "result": "did not alter the cellular localisation"}, {"measurement": "inhibition of C-CPE binding to claudin-4 on the cell membrane", "setting": "[10]", "result": "inhibited the binding of C-CPE to claudin-4 on the cell membrane"}, {"measurement": "intestinal tissue toxicity (histochemical analysis)", "setting": "rat jejunum [11]", "result": "no evidence of intestinal tissue toxicity"}]}]}
